# Test results from ChEMBL document CHEMBL3769367, “Orexin Receptor Antagonists: New Therapeutic Agents for the Treatment of Insomnia” (J Med Chem, 2016).
# Experiments:
# [1] = Plasma protein binding in Wistar rat; type: ADME, cell-free; conditions: read-out: PPB (converted)
# [2] = Elimination half life in human at 1 to 1000 mg administered as single dose; type: ADME, organism-based; conditions: in vivo, read-out: beta t1/2 (converted)
# [3] = tested on: Canis familiaris; assay: Effect on sleep parameter in po dosed Beagle dog by EEG analysis; type: functional, Canis lupus familiaris
# [4] = Ratio of drug level in CSF to plasma in Wistar rat
# [5] = Ratio of drug level in brain to plasma in Wistar rat; type: ADME, cell-free; conditions: read-out: BPR
# [6] = Half life in iv dosed Wistar rat; type: ADME, organism-based; conditions: in vivo
# [7] = Oral bioavailability in Wistar rat; type: ADME, organism-based; conditions: in vivo
# [8] = Oral bioavailability in Beagle dog; type: ADME, organism-based, Canis lupus familiaris; conditions: in vivo
# [9] = tested on: Rattus norvegicus; assay: Effect on sleep parameter in po dosed Wistar rat by EEG analysis; type: functional
# [10] = tested on: Rattus norvegicus; assay: Effect on sleep parameter in Wistar rat assessed as NREM sleep duration time at 100 mg/kg, po measured over 12 hrs (reference value: 243 +/- 8 min); type: functional
# [11] = tested on: Rattus norvegicus; assay: Effect on sleep parameter in Wistar rat assessed as REM sleep duration time at 100 mg/kg, po measured over 12 hrs (reference value: 33 +/- 4 min); type: functional
# [12] = tested on: Rattus norvegicus; assay: Effect on sleep parameter in Wistar rat assessed as latency to persistent NREM time at 100 mg/kg, po measured over 12 hrs (reference value: 40 +/- 3 min); type: functional
# [13] = tested on: Rattus norvegicus; assay: Effect on sleep parameter in Wistar rat assessed as latency to persistent REM time at 100 mg/kg, po measured over 12 hrs (reference value: 101 +/- 17 min); type: functional
# [14] = Oral bioavailability in human; type: ADME, organism-based; conditions: in vivo
# [15] = Tmax in human at 1 to 1000 mg administered as single dose; type: ADME, organism-based; conditions: in vivo
# [16] = tested on: Homo sapiens; assay: Effect on sleep parameter in insomnia patient assessed as sleep efficiency at 50 mg, po by polysomnography; type: functional
# [17] = tested on: Homo sapiens; assay: Effect on sleep parameter in insomnia patient assessed as latency to persistent sleep time at 50 mg, po by polysomnography; type: functional
# [18] = tested on: Homo sapiens; assay: Effect on sleep parameter in insomnia patient assessed as wake after sleep onset time at 50 mg, po by polysomnography; type: functional
# [19] = tested on: Homo sapiens; assay: Effect on sleep parameter in insomnia patient assessed as total sleep time at 50 mg, po by polysomnography; type: functional
# [20] = tested on: Homo sapiens; assay: Effect on sleep parameter in insomnia patient assessed as sleep efficiency at 100 mg, po by polysomnography; type: functional
# [21] = tested on: Homo sapiens; assay: Effect on sleep parameter in insomnia patient assessed as latency to persistent sleep time at 100 mg, po by polysomnography; type: functional
# [22] = tested on: Homo sapiens; assay: Effect on sleep parameter in insomnia patient assessed as wake after sleep onset time at 100 mg, po by polysomnography; type: functional
# [23] = tested on: Homo sapiens; assay: Effect on sleep parameter in insomnia patient assessed as total sleep time at 100 mg, po by polysomnography; type: functional
# [24] = tested on: Homo sapiens; assay: Effect on sleep parameter in insomnia patient assessed as sleep efficiency at 200 mg, po by polysomnography; type: functional
# [25] = tested on: Homo sapiens; assay: Effect on sleep parameter in insomnia patient assessed as latency to persistent sleep time at 200 mg, po by polysomnography; type: functional
# [26] = tested on: Homo sapiens; assay: Effect on sleep parameter in insomnia patient assessed as wake after sleep onset time at 200 mg, po by polysomnography; type: functional
# [27] = tested on: Homo sapiens; assay: Effect on sleep parameter in insomnia patient assessed as total sleep time at 200 mg, po by polysomnography; type: functional
# [28] = tested on: Homo sapiens; assay: Effect on sleep parameter in insomnia patient assessed as sleep efficiency at 400 mg, po by polysomnography; type: functional
# [29] = tested on: Homo sapiens; assay: Effect on sleep parameter in insomnia patient assessed as latency to persistent sleep time at 400 mg, po by polysomnography; type: functional
# [30] = tested on: Homo sapiens; assay: Effect on sleep parameter in insomnia patient assessed as wake after sleep onset time at 400 mg, po by polysomnography; type: functional
# [31] = tested on: Homo sapiens; assay: Effect on sleep parameter in insomnia patient assessed as total sleep time at 400 mg, po by polysomnography; type: functional
# [32] = molecular target: Cytochrome P450 3A4 (Homo sapiens, UniProt P08684); assay: Inhibition of CYP3A4 (unknown origin); type: ADME
# Chain of Cytochrome P450 3A4 (P08684 whole entry): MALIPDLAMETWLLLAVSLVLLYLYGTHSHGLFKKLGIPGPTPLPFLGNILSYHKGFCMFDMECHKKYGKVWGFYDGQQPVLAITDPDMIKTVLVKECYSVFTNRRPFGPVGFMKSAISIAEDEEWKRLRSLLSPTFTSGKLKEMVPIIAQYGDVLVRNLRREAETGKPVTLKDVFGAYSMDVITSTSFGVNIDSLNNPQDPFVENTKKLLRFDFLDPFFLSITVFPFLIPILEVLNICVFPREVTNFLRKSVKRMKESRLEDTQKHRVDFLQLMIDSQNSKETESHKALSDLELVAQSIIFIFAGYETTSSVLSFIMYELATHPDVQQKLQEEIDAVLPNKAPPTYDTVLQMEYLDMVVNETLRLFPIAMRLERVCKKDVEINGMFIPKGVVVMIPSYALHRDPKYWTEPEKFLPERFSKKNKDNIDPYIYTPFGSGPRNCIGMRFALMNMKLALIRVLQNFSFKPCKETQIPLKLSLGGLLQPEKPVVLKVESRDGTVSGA
# [33] = molecular target: T1, Orexin/Hypocretin receptor type 1 (Homo sapiens, UniProt O43613); assay: Antagonist activity at human OX1R expressed in CHO cells assessed as inhibition of orexin-A-induced intracellular calcium release by FLIPR assay; type: functional, cell-based
# T1 sequence (O43613 whole entry): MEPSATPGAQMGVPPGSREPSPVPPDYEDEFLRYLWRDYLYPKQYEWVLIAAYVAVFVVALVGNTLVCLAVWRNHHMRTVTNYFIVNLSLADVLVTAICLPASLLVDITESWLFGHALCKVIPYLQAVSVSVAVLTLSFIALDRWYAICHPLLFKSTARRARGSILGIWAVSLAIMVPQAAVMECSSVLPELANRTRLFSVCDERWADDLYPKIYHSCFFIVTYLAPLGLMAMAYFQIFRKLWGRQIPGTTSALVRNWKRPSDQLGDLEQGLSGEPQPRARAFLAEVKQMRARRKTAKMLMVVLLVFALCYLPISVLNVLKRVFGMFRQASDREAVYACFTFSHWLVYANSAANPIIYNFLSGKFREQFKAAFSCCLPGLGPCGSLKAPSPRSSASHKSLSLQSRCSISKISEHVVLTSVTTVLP
# [34] = molecular target: T2, Orexin receptor type 2 (Homo sapiens, UniProt O43614); assay: Antagonist activity at human OX2R expressed in CHO cells assessed as inhibition of orexin-A-induced intracellular calcium release by FLIPR assay; type: functional, cell-based
# T2 sequence (O43614 whole entry): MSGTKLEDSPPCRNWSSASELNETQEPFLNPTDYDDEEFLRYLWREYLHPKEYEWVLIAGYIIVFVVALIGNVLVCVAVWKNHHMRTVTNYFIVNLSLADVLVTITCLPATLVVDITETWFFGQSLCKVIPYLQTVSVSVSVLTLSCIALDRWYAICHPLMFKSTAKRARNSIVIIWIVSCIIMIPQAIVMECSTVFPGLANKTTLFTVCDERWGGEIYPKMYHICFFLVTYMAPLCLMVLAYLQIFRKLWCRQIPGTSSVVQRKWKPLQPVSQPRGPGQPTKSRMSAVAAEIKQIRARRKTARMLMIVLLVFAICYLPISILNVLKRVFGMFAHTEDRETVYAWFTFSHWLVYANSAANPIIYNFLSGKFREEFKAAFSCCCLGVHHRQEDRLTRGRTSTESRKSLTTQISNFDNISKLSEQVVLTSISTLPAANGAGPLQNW
# [35] = tested on: Rattus norvegicus; assay: Effect on sleep parameter in po dosed rat by EEG analysis; type: functional
# [36] = molecular target: T1, Orexin/Hypocretin receptor type 1; assay: Antagonist activity at human OX1R expressed in CHO cell membranes assessed as inhibition of orexin-A-induced intracellular calcium release after 120 mins; type: functional, cell-based
# [37] = Plasma protein binding in human; type: ADME, cell-free; conditions: read-out: PPB (converted)
# [38] = molecular target: T1, Orexin/Hypocretin receptor type 1; assay: Binding affinity to OX1R (unknown origin)
# [39] = Plasma protein binding in rat; type: ADME, cell-free; conditions: read-out: PPB (converted)
# [40] = Plasma protein binding in dog; type: ADME, cell-free, Canis lupus familiaris; conditions: read-out: PPB (converted)
# [41] = organism: Rattus norvegicus; assay: Receptor occupancy at OX2R in rat brain assessed as drug level in plasma; type: functional
# [42] = Clearance in iv dosed rat; type: ADME, organism-based; conditions: in vivo
# [43] = Half life in iv dosed rat; type: ADME, organism-based; conditions: in vivo
# [44] = Clearance in iv dosed dog; type: ADME, organism-based, Canis lupus familiaris; conditions: in vivo
# [45] = Half life in iv dosed dog; type: ADME, organism-based, Canis lupus familiaris; conditions: in vivo
# [46] = Oral bioavailability in rat; type: ADME, organism-based; conditions: in vivo
# [47] = Oral bioavailability in dog; type: ADME, organism-based, Canis lupus familiaris; conditions: in vivo
# [48] = tested on: Canis familiaris; assay: Effect on sleep parameter in po dosed dog by EEG analysis; type: functional, Canis lupus familiaris
# [49] = molecular target: T2, Orexin receptor type 2; assay: Antagonist activity at human OX2R expressed in CHO cell membranes assessed as inhibition of orexin-A-induced intracellular calcium release after 120 mins; type: functional, cell-based
# [50] = Ratio of drug level in CSF to plasma in rat; type: ADME, cell-free
# [51] = Ratio of drug level in brain to plasma in rat; type: ADME, cell-free; conditions: read-out: BPR
# [52] = molecular target: T2, Orexin receptor type 2; assay: Antagonist activity at OX2R (unknown origin)
# [53] = molecular target: T1, Orexin/Hypocretin receptor type 1; assay: Antagonist activity at OX1R (unknown origin)
# [54] = organism: Homo sapiens; assay: Apparent half life of the compound in human; type: ADME, organism-based; conditions: in vivo
# [55] = molecular target: T2, Orexin receptor type 2; assay: Binding affinity to OX2R (unknown origin)
# [56] = organism: Homo sapiens; assay: Selectivity ratio of IC50 for OX2R (unknown origin) to IC50 for OX1R (unknown origin)
# [57] = molecular target: T3, Orexin receptor type 2 (Homo sapiens) (UniProt O43614)
# T3 sequence (whole entry): T2 sequence (O43614 whole entry)
smiles,measurement,setting,value
CNC(=O)[C@@H](c1ccccc1)N1CCc2cc(OC)c(OC)cc2[C@@H]1CCc1ccc(C(F)(F)F)cc1 [ALMOREXANT],fraction unbound,[1],0.01
same,half-life,[2],13.1 h
same,Activity,[3],100 mg/kg
same,Kp,[4],0.002
same,Kp,[5],0.3
same,half-life,[6],8 h
same,bioavailability,[7],8%
same,bioavailability,[8],18%
same,Activity,[9],30 mg/kg
same,Time,[10],286 min
same,Time,[11],50 min
same,Time,[12],30 min
same,Time,[13],91 min
same,bioavailability,[14],11%
same,Tmax,[15],0.7 h
same,Activity,[16],3.3%
same,Time,[17],-5.7 min
same,Time,[18],-6.7 min
same,Time,[19],15.8 min
same,Activity,[20],4.6%
same,Time,[21],-10.4 min
same,Time,[22],-20.1 min
same,Time,[23],21.4 min
same,Activity,[24],8.2%
same,Time,[25],-10.4 min
same,Time,[26],-34.3 min
same,Time,[27],39.3 min
same,Activity,[28],14.4%
same,Time,[29],-18 min
same,Time,[30],-54 min
same,Time,[31],69.7 min
COc1ccc(S(=O)(=O)N2CCC[C@H]2C(=O)Nc2cccc(SC)c2)cc1,IC50,[32],8000 nM
same,IC50,[33],31 nM
same,IC50,[34],7 nM
Cc1ccc(-c2ncccn2)c(C(=O)N2C[C@H](COc3ccc(F)cn3)CC[C@H]2C)c1 [FILOREXANT],Activity,[35],3 mg/kg
same,IC50,[36],11 nM
same,fraction unbound,[37],0.025
same,Ki,[38],2.2 nM
same,fraction unbound,[39],0.05
same,fraction unbound,[40],0.06
same,Occ90,[41],142 nM
same,clearance,[42],67 mL/min/kg
same,half-life,[43],0.5 h
same,clearance,[44],5.8 mL/min/kg
same,half-life,[45],2.3 h
same,bioavailability,[46],25%
same,bioavailability,[47],26%
same,Activity,[48],0.25 mg/kg
same,IC50,[49],11 nM
same,Kp,[50],0.04
same,Kp,[51],1.1
COc1ccc(CC2c3cc(OC(C)C)c(OC)cc3CCN2CC(=O)NCc2ccccc2)cc1OC (stereo not given),IC50,[52],> 10000 nM
same,IC50,[53],17 nM
Cc1nc(C(=O)N2CCCC[C@H]2CNC(=O)c2cccc3occc23)c(-c2ccc(F)cc2)s1 (stereo in doubt; form 2) [SB-649868],t1/2(app),[54],39 h
Cc1ccc(-n2nccn2)c(C(=O)N2C[C@H](COc3ccc(F)c(C)c3)CC[C@H]2C)c1 (racemic),Ki,[55],0.1 nM
same,Ki,[38],0.3 nM
Cc1nc(C(=O)N2CCCCC2CCOc2ccc(F)cc2)c(-c2ccccc2)s1 (stereo not given),Ki,[55],4 nM
same,Ki,[38],8 nM
COc1cccc(OC)c1C(=O)N1CCCN(c2nc3ccc(Cl)cc3s2)CC1,IC50,[53],630 nM
CCN(CCN(C)c1nc2ccccc2o1)C(=O)c1cc(C)ccc1-n1nccn1,IC50,[52],18 nM
same,IC50,[53],13 nM
Cc1nc(C(=O)N2CCCC[C@H]2CCOc2ccc(F)cc2)c(-c2ccccc2)s1,IC50,[52],14 nM
same,IC50,[53],12 nM
COc1ccc(CC2c3cc(OC)c(OC)cc3CCN2CC(=O)NCc2ccccc2)cc1OC (stereo not given),Ratio IC50,[56],68
CSc1cccc(NC(=O)[C@@H]2CCCN2S(=O)(=O)c2ccc(Br)s2)c1,IC50,[33],21 nM
Cc1ccc(-n2nccn2)c(C(=O)N2C[C@@H](COc3ccc(F)c(C)c3)CC[C@H]2C)c1 (racemic),Ki,[55],22 nM
same,Ki,[38],34 nM
CC1(C)OC[C@H](NC(=O)Nc2ccc(Br)cc2Br)[C@H](c2ccccc2)O1,pKb,[57],8.3
Cc1ccc(-n2nccn2)c(C(=O)N2CCCC(COc3ccc(F)c(C)c3)C2)c1 (stereo not given),Ki,[55],16 nM
same,Ki,[38],15 nM
